Test results from BigSolDB 2.1.

COc1cccc(C(=O)O)c1OC
solubility (mole fraction)
Details | 278.15 K | 283.15 K | 288.15 K | 293.15 K | 298.15 K | 303.15 K | 308.15 K | 313.15 K | 318.15 K | 323.15 K
in 1,4-dioxane | – | – | 0.0585 | 0.069 | 0.0805 | 0.0934 | 0.11 | 0.127 | 0.148 | –
in 2-ethoxyethanol | 0.0418 | 0.0485 | 0.0552 | 0.0644 | 0.0733 | 0.084 | 0.0974 | 0.109 | 0.128 | 0.146
in acetonitrile | 0.0108 | 0.0133 | 0.0167 | 0.0204 | 0.0254 | 0.0309 | 0.0385 | 0.0474 | 0.059 | 0.0734
in ethanol | 0.0131 | 0.0165 | 0.0202 | 0.0252 | 0.0304 | 0.0384 | 0.0466 | 0.0592 | 0.0714 | 0.0884
in ethyl acetate | 0.0133 | 0.0159 | 0.0189 | 0.023 | 0.0271 | 0.0332 | 0.0391 | 0.0464 | 0.057 | 0.0685
in ethylene glycol | 0.0468 | 0.0529 | 0.0616 | 0.0708 | 0.0801 | 0.092 | 0.104 | 0.12 | 0.137 | 0.154
in isopropanol | 0.00832 | 0.0106 | 0.0138 | 0.0175 | 0.0233 | 0.0291 | 0.0384 | 0.0482 | 0.0632 | 0.0791
in isopropyl acetate | 0.00953 | 0.0111 | 0.0137 | 0.0162 | 0.0198 | 0.0237 | 0.029 | 0.0339 | 0.0425 | 0.0499
in methanol | 0.0151 | 0.0192 | 0.0229 | 0.0288 | 0.0348 | 0.0446 | 0.0535 | 0.0682 | 0.0838 | 0.101
in methyl acetate | 0.0166 | 0.0197 | 0.0236 | 0.0282 | 0.034 | 0.041 | 0.0494 | 0.0589 | 0.0719 | 0.0862
in n-butanol | 0.00922 | 0.0116 | 0.0144 | 0.0183 | 0.0219 | 0.0284 | 0.0362 | 0.0449 | 0.0562 | 0.0716
in n-butyl acetate | 0.00923 | 0.0111 | 0.0134 | 0.016 | 0.0195 | 0.0234 | 0.0286 | 0.0342 | 0.0428 | 0.0506
in n-propanol | 0.00925 | 0.0122 | 0.0151 | 0.0197 | 0.0243 | 0.0316 | 0.0386 | 0.05 | 0.0618 | 0.0793
in n-propyl acetate | 0.0106 | 0.0133 | 0.0154 | 0.0193 | 0.0224 | 0.0279 | 0.0326 | 0.0403 | 0.0468 | 0.0583
in water | 4.79e-05 | 6.1e-05 | 7.77e-05 | 0.0001 | 0.000125 | 0.000162 | 0.000202 | 0.00026 | 0.000323 | 0.000399
